Holding throughout (experiment): NCI tumour cell line growth inhibition, 384-well format
In assay [1] the test system is MDA-MB-468 breast.
For assay [2], the system named is A549 NSCLC.
The subject of assay [3] is NCI-H460 NSCLC.
Assay [4] deals with EKVX NSCLC.
Assay [5] relates to CCRF-CEM leukemia.
The test system of assay [6] is SF-539 CNS.
Assay [7] concerns MCF7 breast.
Assay [8] has as its system MDA-MB-231 breast.
Assay [9] concerns LOX IMVI melanoma.
Assay [10] deals with UACC-257 melanoma.
Assay [11] deals with 786-0 renal.
The subject of assay [12] is SNB-75 CNS.

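At the GI50, growth is halved. TGI marks complete inhibition of growth.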

For the molecule `O=C(NC[C@H](O)CN1CCc2ccccc2C1)c1cc(NC2COC2)ncn1`, the GI50 in assay [1] was greater than 100000 nM; in assay [2], greater than 100 µM; in [3] it was 6 µM; in [4], greater than 100000 nM; in [5] it was greater than 100000 nM; in [6], greater than 100000 nM. The GI50 is greater than 41500 nM in assay [7]; greater than 100000 nM in [8]; greater than 100000 nM in assay [9]; greater than 100000 nM in assay [10]; greater than 100000 nM in assay [11]; greater than 100000 nM in [12]. Moreover, the TGI in assay [1], in assay [2], in [3], in [4], in assay [5] and in assay [6] was greater than 100 µM throughout. The TGI in assay [7], in [8], in [9], in assay [10], in [11] and in [12] was greater than 100 µM throughout.

In the case of `CN1CCN(c2ccc(Nc3cc(-c4cccc(-n5ccc6cc(C7CC7)cc(F)c6c5=O)c4CO)cn(C)c3=O)nc2)CC1`, the GI50 was 1700 nM in [1]; 3.1 µM in assay [2]; 2.06 µM in assay [3]; 2030 nM in assay [4]; 1780 nM in [5]; 1710 nM in assay [6]. The GI50 in assay [7] was 1790 nM; in assay [8], 1950 nM; in assay [9], 2040 nM; in assay [10] it was 1740 nM; in [11], 1690 nM; in [12], 1730 nM. For the same molecule, the TGI in assay [1] was 3.16 µM; in [2] it was 10.5 µM; in assay [3], 4.14 µM; in assay [4] it was 4.57 µM; in assay [5], 3.18 µM; in [6], 3.14 µM. Also, the TGI in assay [7] was 4.37 µM; in assay [8] it was 3.92 µM; in assay [9], 3.52 µM; in assay [10], 3.13 µM; in assay [11] it was 3.39 µM; in assay [12], 3.44 µM.

The values above are taken from PubChem BioAssay (NCI).
